These results are taken from patent publication EP3281632A1, “ARGON FOR USE IN THE PREVENTION OF BOTH CARDIAC AND CEREBRAL INJURY INDUCED BY ISCHEMIA/REPERFUSION FOLLOWING CARDIAC ARREST” (Societa'Italiana Acetilene & Derivati S.I.A.D. S.p.A. in …, priority 2016, dated 2018).

For series [1], the system named is cardiac arrest and CPR in the rat. Put plainly: Model of cardiac arrest and CPR in the rat, argon ventilation started during CPR. Format: in vivo. How it is done:
In a model of cardiac arrest and CPR in the rat, treatment with inhaled argon was initiated early, concurrently with chest compression prior to resuscitation. After 7 min of untreated cardiac arrest, 5 min of CPR were initiated and animals were subjected to ventilation with (a) 70% argon - 30% 02 or (b) 70% N2 - 30% 02. The above ventilation strategies were continued up to 2 hrs following resuscitation.

In series [2] the test system is left anterior descending coronary artery occlusion (LAD). The settings on record: rabbits; three 5-min cycles of 70% argon in oxygen prior to 30 min LAD occlusion; in comparison to control ventilation; cited from earlier work.
A further series has as its system cardiac arrest, pigs. The settings on record: cited from earlier work.
For series [3], the system named is acute myocardial infarction by LAD occlusion in the rat. Put plainly: Model of acute myocardial infarction by LAD occlusion in the rat. Format: in vivo. The protocol: In a model of acute myocardial infarction by LAD occlusion in the rat, ventilation with argon reduced myocardial injury. More in details, the LAD occlusion was removed after 30 min; 5 min before reperfusion, animals were randomized to 1 hour ventilation with: (1) 70% argon - 30% oxygen; or (2) 70% nitrogen - 30% oxygen. […] Moreover, a reduced inflammatory response in terms of neutrophil infiltration in the argon ventilation group compared to control group was observed (72 cells/mm^2 vs. 92 cells/mm^2).

Series [4] has as its system rats resuscitated after cardiac arrest. The conditions noted are these: post resuscitation ventilation with 70% argon, cited from earlier work.
Series [5] has as its system cardiac arrest and CPR in the pig. Put plainly: Severe model of cardiac arrest and CPR in the pig, 4 hr ventilation after CPR. Type of series: in vivo. Also on record: circulating levels of hs-cTnT (median): unit not given here. How it is done:
In a severe model of cardiac arrest and CPR in the pig, treatment with inhaled argon allowed for concurrent cardiac and cerebral protection. After 12 min of untreated cardiac arrest and 5 min of CPR, animals were subjected to 4 hr ventilation with (a) 70% argon - 30% 02 or (b) 70% N2 - 30% 02.

Setting [6] is: argon during CPR and up to 2 hrs after resuscitation, compared to controls.
[7] abbreviates: during the 4 hr of observation, compared to controls.

In series [1] (7 min untreated cardiac arrest, 5 min CPR with 70% argon - 30% 02 ventilation, control 85%), `[Ar]` [argon] showed a resuscitation rate of 93%. Moreover, in series [1] (setting [6]), the “post resuscitation coronary perfusion pressure” value is “higher” and the “post resuscitation mean arterial pressure” value is reported as “higher”. The “lactate/pyruvate ratio in the hippocampus” value in series [1] (cerebral microdialysis, compared to controls) is on record as “lower”. The “left ventricle ejection fraction” value in series [1] (compared to the control ventilation) is listed as “trend toward better”. In series [1] (compared to those ventilated with nitrogen and oxygen), the neurological recovery result is “significantly faster and better”. In addition, in series [1] (trend, compared to the control ventilation), the “troponin T release” value was “lower”. Also, the “reduction of myocardial infarct size” value in series [2] was 22%. Further, the neurological recovery entry in the series with cardiac arrest, pigs (70% argon-30% oxygen after ROSC, in contrast to nitrogen and oxygen) is “fast and complete”. For the same compound, the “post resuscitation increase in plasmatic cardiac troponin T” value in the series with cardiac arrest, pigs (8 min untreated cardiac arrest, 5 min CPR, 70% argon-30% oxygen after ROSC) is listed as “three-fold lower”. In addition, in the series on cardiac arrest, pigs (compared to control), the “brain injury (histopathology)” value is “lesser brain injury”. For the same compound, in the series with cardiac arrest, pigs (ventilation with argon), the “respiratory exchange or arterial blood gases” value was “did not impair”. Moreover, in series [3] (30 min LAD occlusion, 1 hour ventilation 70% argon - 30% oxygen from 5 min before reperfusion, after 6 hours, control 7432 ng/l, p < 0.05), the “plasma level of myocardial troponin T” value was 3128 ng/L. For the same compound, the neutrophil infiltration in series [3] (LAD occlusion, argon ventilation group, control 92 cells/mm^2) was 72 cells/mm^2. In series [4] (at all time points), the neurological deficit score result was “significant improvements”. Moreover, the “neuronal injury (histology)” value in series [4] was “significant reduction”. In series [5] (12 min untreated cardiac arrest, 5 min CPR, 4 hr ventilation with 70% argon - 30% 02, control 3.4 ± 1.6), the “Cerebral Performance Category” value stood at 1.7 ± 1.3. Also, in series [5] (4 hr ventilation 70% argon - 30% 02, control 21.2 ng/mL, p not significant), the “circulating levels of NSE (median)” value amounted to 8.5 ng/mL. Also, the “circulating levels of hs-cTnT (median)” value in series [5] (4 hr ventilation 70% argon - 30% 02, control 8015 ng/mL, p < 0.05) is listed as 1332. For the same compound, the myocardial infarct size result in series [5] (after argon treatment, compared to controls) was “significantly lower”. For the same compound, in series [5] (setting [7]), the heart rate result is recorded as “significantly lower”, the mean arterial pressure entry is reported as “higher” and the stroke volume result is given as “higher”. Further, the “recovery of systolic myocardial function” value in series [5] (evaluated echocardiographically at 96 hr, compared to controls) is “significantly better recovery”.
